Reference: US4604382A, “3'-amino-2',3'-dideoxycytidine and the pharmacologically acceptable salts thereof” (Research Corporation, priority 1983, dated 1986)
Converted amounts (≈) assume the structure as drawn. Where two headings read alike, the source gives them in different places.

Assays:
[1] = Water solubility of the new compound; type: physicochemical; conditions: at 23° C.
Method: The new compound has excellent water solubility (~0.5 g/mL at 23° C.) and readily forms non-toxic acid addition salts with a variety of pharmacologically acceptable organic and inorganic salt-formingreagents. Thus, acid addition salts formed by admixture of the organic free base with up to two equivalents of an acid, suitably in a neutral solvent, are formed with such acids as sulfuric, phosphoric, hydrochloric,hydrobromic, sulfamic, citric, lactic, malic, succinic, tartaric, acetic, benzoic, gluconic, ascorbic, and the like. For purposes of this invention, the free base is equivalent to the non-toxic acid addition salts. The acid addition salts are, in general, crystalline solids, very soluble in water, relatively soluble in methanol and ethanol but relatively insoluble in non-polar organic solvents such as diethyl ether, benzene, toluene, and the like.

L1210 leukemia = L1210 leukemia in CDF1 mice, survival time (T/C); type: in vivo, mouse (CDF1 female mice); conditions: 160 mg/kg i.p. twice a day for 3 days, starting 24 hours post inoculation of 1×10^5 L1210 cells
Method: Transplantation of L1210 ascites cells was carried out by withdrawing peritoneal fluid from donor CDF1 mice bearing 7-day growths. The suspension was centrifuged for 2 minutes (1600 g), the supernatant peritoneal fluid was decanted, and a 10-fold dilution with isotonic saline was made. The cell number was determined with a Coulter particle counter and the cell population was adjusted to 10^6 cells/mL. One-tenth mL of the resulting cell suspension (containing approximately 10^5 cells) was injected intraperitoneally into each animal. The drug was administered by intraperitoneal injection, beginning 24 hours after tumor implantation,twice daily for 3 consecutive days. The test compound was injected as a solution in isotonic saline. The drug was administered intraperitoneally in a volume of 0.25 mL. […] Mice were weighed during the course of the experiments, and the percentage change in body weight from onset to termination of therapy was used as an indication of drug toxicity. Determination of the sensitivity of ascitic neoplasms to this agent were based on the prolongation of survival time afforded by the drug treatments. The median survival time and the ratio of survival time for treated (T)/control (C) was calculated.
3'-Amino-2',3'-dideoxycytidine was screened against CDF1 female mice bearing L1210 leukemia according to the above protocol. Three groups of mice with 4 mice in each group were inoculated with 1×10^5 L1210 murine leukemia cells. Starting 24 hours post inoculation, the first group of mice was injected with saline as the vehicle control, the second group with 160 mg/kg of the test compound in saline twice a day, for 3 days. All control mice died by day 9. In the group treated with the test compound, one mouse died at day 21, the second at day 24, the third at day 29 and the last one at day 31, yielding a T/C×100 value of 283.

S-180 cells [2] = assay: Inhibition of replication of S-180 cells in vitro; type: cell-based; conditions: Mus musculus, mean cell counts after 72 hours, triplicate, read-out: ID50 (S-180)
Method: (§1) Mouse L1210 and S-180 cells were maintained as suspension cultures in Fischer's medium supplemented with 10% horse serum at 37° C. in a humidified atmosphere of 5% CO2 -95% air. Under these conditions the generation time for L1210 and S-180 cells is approximately 12 and 18 hours, respectively. The test compound at the given concentration, was added to L1210 and S-180 cells (2×10^4 cells/mL) which were in their exponential phase of growth. The increase in cell number of the drug-free culture (control), as well as that of the cultures supplemented with the test compound, was determined after 24, 48 and 72 hours of growth.
(§2) 3'-Amino-2',3'-dideoxycytidine was also screened against S-180 neoplastic cells in vitro. The ID50 values were estimated from dose-response curves compiled from at least two independent experiments and represent the drug concentration required to inhibit replication of L1210 or S-180 neoplastic cells by 50%.
(§3) ID50 values were determined from plots of mean cell counts after 72
(§4) hours. Assays were carried out in triplicate with appropriate controls.

L1210 cells [3] = assay: Inhibition of replication of L1210 cells in vitro; type: cell-based; conditions: Mus musculus, mean cell counts after 72 hours, triplicate, read-out: ID50 (L1210)
Method: as §1, §2, §3, §4

[4] = system: cytotoxicity of the novel compound; type: cell-based; conditions: in words
Method: (§5) At a 5 μM concentration of this compound the addition of 25 μM and 100 μM of 2'-deoxycytidine prevented the cytotoxicity of the novel compound against L1210 cells by 35% and 100% respectively.

L1210 cells [5] = type: cell-based, mouse
Method: as §1, §5

S-180 cells [6] = type: cell-based, mouse; conditions: 25 μM 2'-deoxycytidine added to 20 μM of the new compound
Method: as §1, §5

[7] = 4 mice, all controls died by day 9

Compound	solubility [1]	T/C×100 (survival time treated/control) (L1210 leukemia)	day of death, first mouse (L1210 leukemia; [7])	day of death, last mouse (L1210 leukemia; [7])	day of death, second mouse (L1210 leukemia; [7])	day of death, third mouse (L1210 leukemia; [7])	IC50 (S-180 cells [2])	IC50 (L1210 cells [3])	prevention of the cytotoxicity of the novel compound [4]	prevention of the cytotoxicity of the novel compound against L1210 cells (L1210 cells [5]; 25 μM 2'-deoxycytidine added to 5 μM of the novel compound)	prevention of the cytotoxicity of the novel compound against L1210 cells (L1210 cells [5]; 100 μM 2'-deoxycytidine added to 5 μM of the novel compound)	preventive effect on the cytotoxicity of the novel compound against L1210 cells (L1210 cells [5]; dose dependence, in words)	prevention of the cytotoxicity of the novel compound against S-180 cells (S-180 cells [6])
Nc1ccn([C@H]2C[C@H](N)[C@@H](CO)O2)c(=O)n1 [3'-amino-2',3'-dideoxycytidine, 3'-Amino-2',3'-dideoxycytidine]	~500 mg/mL (≈ 2210 mM)	283	21 days	31 days	24 days	29 days	4000 nM	700 nM					
Nc1ccn([C@H]2C[C@H](O)[C@@H](CO)O2)c(=O)n1 [2'-deoxycytidine]									uniquely prevented	35%	100%	dose dependent	27%
